Assays:
LPS-stimulated AM = assay: TNF-α release, cytotoxic bioassay with WEHI 164 clone 13 cells, AM; assay type: cell-based, human; conditions: for TNF-α release by LPS-stimulated AM: preincubated 24 hour with cytokine (IL-9, IL-4 20 ng/ml, IFN-γ 200 U/ml) or medium, LPS 1 μg/ml 20 h, without LPS 4.6±2.1
Procedure: PBM and AM obtained as described infra (1×10^6 PBM, 0.5×10^6 AM) were preincubated for 24 hour with cytokines, IL-4, IL-9 (20 ng/ml) and IFN-γ (200 U/ml) before the stimulation by LPS (1 μg/ml) for 20 h. Supernatants were harvested and frozen at −20° C. until cytokine titration. TNF-α release was determined in supernatants by a cytotoxic bioassay using WEHI 164 clone 13 target cells (Espevik and Nissen-Meyer, J. Immunol. Methods, 95:99-105 (1986) (incorporated herein by reference)), while IL-8 was quantitated in the same supernatants by ELISA. FIG. 5 depicts the effects of IL-9, IL-4, and IFN-γ on the release of TNFα (A) and IL-8 (B) by LPS-stimulated PBM and AM. Data are means±SEM (n=3). *P<0.001 compared with unstimulated cells; **P<0.05 compared with cells preincubated with medium.
Cells (1×10^6 PBM or 0.5×10^6 AM/well) were distributed in 24-well plates (Falcon), preincubated in cRPMI for 24 hours at 37° C., 5% CO2 with cytokines (IL-9, IL-4 (20 ng/ml) and IFN-γ (200 U/ml)) and stimulated for 20 hours with 1 μg/ml LPS without removing cytokines. Supernatants were harvested and frozen at −20° C. until cytokine titration. Release of TNF-α was quantified by a cytotoxicity bioassay using WEHI 164 cells clone 13, as previously described (Espevik and Nissen-Meyer, J. Immunol. Methods, 95:99-105 (1986) incorporated herein by reference), using rhTNF-α from Boehringer as a standard. IL-8, IL-10 and TGF-β1 concentrations were determined by ELISA. A kit from CLB (Amsterdam, The Netherlands) was used for IL-10 quantitation, following the manufacturer's protocol. A kit from Biosource allowed to determine TGF-β1 after the release from its latent complexes by a treatment of supernatants with ethanol acid (‘acid-treated supernatants’); TGF-P 1 was also assessed in crude supernatants (‘untreated supernatants’). […] The reaction was then developed in 0.03% v/v H2O2 substrate and 0.42 mM 3,3′,5,5′-tetramethylbenzidine as chromogen in 100 mM sodium acetate/citric acid buffer (pH 4.9), stopped with 2 M H2SO4, and read in a plate spectrometer at 450 nm. […]

LPS-stimulated PBM = assay: Intracellular oxidative burst, DCFH oxidation assay, PBM; assay type: cell-based, human; conditions: for Oxidative burst (nmoles DCF/mg protein): LPS 1 μg/ml 20 h; for oxidative burst in LPS-stimulated PBM with IFN-γ: preincubated 24 hour with cytokine 20 ng/ml in the presence of IFN-γ 200 U/ml, LPS 1 μg/ml 20 hour; for LPS-stimulated oxidative burst in PBM: preincubation 24 hour with cytokine 20 ng/ml, then LPS 1 μg/ml 20 hour, without IFN-γ
Procedure: Intracellular oxidative capacity was assessed essentially as described by Bass et al., J. Immunol., 130:1910-1917 (1983) (incorporated herein by reference) as described infra.
Cells (0.2×10^6) were preincubated for 24 hour with IL-9 or IL-4 (20 ng/ml) in the presence of IFN-γ (200 U/ml) before stimulation for 20 hour with LPS (1 μg/ml). The intracellular oxidative capacity was measured through the DCFH oxidation assay as describe herein. FIG. 3 depicts the effect of IFN-γ on the inhibition mediated by IL-9 and IL-4 on the oxidative burst in LPS-stimulated PBM (A) and AM (B).
Table 1. Specific blockade of the IL-9 inhibitory effect on oxidative burst in LPS-15 stimulated PBM and AM by anti-hIL-9R mAb. Cells (0.2×10^6) were preincubated with neutralizing mAb against hIL-9R (AH9R7, 10 μg/ml), or with control mIgG2b (10 μg/ml), 1 hour before incubation with IL-9 (20 ng/ml) for 24 hour without removing mAb, and stimulated by LPS (1 μg/ml) for 20 h. Intracellular oxidative capacity was evaluated by the DCFH oxidation assay. Data are means±SEM obtained from three experiments, triplicate conditions being performed in each experiment. *P<0.001 compared with cells preincubated with IL-9 (with or without control mIgG2b).
Cells (0.2×10^6) were preincubated with neutralizing mAb, either against TGF-β1 (30 μg/ml) or against IL-10Rβ (30 μg/ml) or with control mIgG1 (30 μg/ml), 2 hour before incubation with IL-9 (20 ng/ml) for 24 hour without removing the mAb, and stimulated with LPS (1 μg/ml) for 20 h. Intracellular oxidative capacity was evaluated by the DCFH oxidation assay.
Intracellular oxidative capacity was assessed as described by Bass et al., (Bass et al., J. Immunol. 130:1910-1917 (1983)). Briefly, the PBM and AM samples were distributed in 96-well plates with flat bottoms (Falcon) to provide 0.2×10^6cells/well. The cells were preincubated for 24 hour at 37° C., 5% CO2 with cytokines (200 u/ml for IFN-y, 20 ng/ml for IL-9 and 20 ng/ml; for IL-4) in cRPMI before being stimulated for 20 hours with LPS (1 μg/ml) without removing the cytokines. At the end of incubation with cytokines and/or LPS, cells were loaded for 15 min with 15 μM DCFH-DA in cRPMI which, after passive penetration into cells, is hydrolyzed into nonfluorescent polar DCFH and trapped inside the cells. DCFH is then oxidized into highly fluorescent DCF according to the intracellular amount of hydrogen peroxide (H2O2) produced by the respiratory burst. After three washings with phosphate-buffered saline (PBS, pH 7.4), cells were lysed in 0.1% v/v Triton X100 (Sigma) in PBS, and fluorescence was quantified in a computerized microplate spectrofluorimeter (Packard Instruments, Downers Grove, Ill., USA) at 485 nm excitation/530 nm emission wavelengths. DCF concentrations were deduced from a standard curve of known concentrations of fluorescent DCF (ranging from 0.08 to 10 μM in lysis buffer) Results were corrected for total protein concentration determined in cell lysates by the bicinchoninic acid-based method (Pierce, Rockford, Ill., USA), and were expressed as nmoles DCF/mg cell protein.

| Molecule | TNF-α release by LPS-stimulated AM (LPS-stimulated AM) [pg/mL] | Oxidative burst (nmoles DCF/mg protein) (LPS-stimulated PBM; Table 1, PBM, mAb 10 μg/ml 1 hour before IL-9 20 ng/ml 24 hour, means±SEM, medium 10.1 ± 0.4) | Oxidative burst (nmoles DCF/mg protein) (LPS-stimulated PBM; Table 3, PBM, mAb 30 μg/ml 2 hour before IL-9 20 ng/ml 24 hour, means±SD, Medium 10.3 ± 0.2) | oxidative burst in LPS-stimulated PBM with IFN-γ (LPS-stimulated PBM) [nmoles DCF/mg protein] | LPS-stimulated oxidative burst in PBM (LPS-stimulated PBM) [nmoles DCF/mg protein] | effect on TNF-α production in LPS-stimulated AM (LPS-stimulated AM; preincubated 24 hour, LPS 20 h) | effect on LPS-stimulated oxidative burst in PBM (LPS-stimulated PBM; preincubation 24 hour, LPS 20 hour) |
| --- | --- | --- | --- | --- | --- | --- | --- |
| IL-9: Human IL-9 purified from SF9 insect cell cultures infected with recombinant baculovirus | 74.8 ± 10.2 | 10.7 ± 0.5 | 10.8 ± 0.6 | 10.5±2.1 | 10.7±0.5 |  |  |
| IL-4: Th2 cytokine interleukin-4 used as comparator, 20 ng/ml |  |  |  | 19.6±2.2 | 9.4±0.6 | No significant inhibition |  |
| IFN-γ: Interferon gamma, primes mononuclear phagocytes, 200 U/ml (protein, UniProt P01579 24-161, looked up) Interferon gamma: QDPYVKEAENLKKYFNAGHSDVADNGTLFLGILKNWKEESDRKIMQSQIVSFYFKLFKNFKDDQSIQKSVETIKEDMNVKFFNSNKKKRDDFEKLTNYSVTDLNVQRKAIHELIQVMAELSPAAKTGKRKRSQMLFRG | 145.2 ± 9.4 |  |  |  |  |  | slightly increased |

Reference: US20030091533A1, “Regulation of mononuclear phagocyte stimulation” (priority 2001, published 2003)
